Reference: patent US10392667B2, “Methods and devices for predicting treatment efficacy of fulvestrant in cancer patients” (Medical Prognosis Institute A/S, priority 2013, dated 2019)
Read-outs that look alike come from different tables or passages of the source.

Tests used:
[1] = test system: ER-positive, locally advanced breast cancer; experiment: NEWEST Phase II trial: tumor response by 3D ultrasound after 16 weeks of neoadjuvant fulvestrant; format: in vivo, human; conditions: for overall response rate (CR+PR): 16 weeks
Description: NEWEST (Neoadjuvant Endocrine Therapy for Women with Estrogen-Sensitive Tumors; 9238IL/0065) was a randomized, open-label, multicenter, Phase II study involving postmenopausal women with newly diagnosed, ER-positive, locally advanced breast cancer who had received no prior breast cancer treatment ([…]). Eligible patients were randomized 1:1 to receive either fulvestrant 500 mg or 250 mg for 16 weeks preceding surgery. Fulvestrant 500 mg was given as two 5 ml intramuscular injections on days 0, 14, 28 and every 28 days thereafter for 16 weeks. Fulvestrant 250 mg was given as one 5 ml injection on days 0, 28 and every 28 days thereafter for 16 weeks (Kuter et al., Breast Cancer Res. Treat., 133:237-246, 2012).
A total of 211 patients were enrolled in NEWEST. Of these, 173 completed the study and 121 met all protocol criteria. Fresh frozen pre-treatment samples with sufficient RNA (100 ng) was available from 44 patients. Two samples were discarded due to array quality, leaving 42 patients. Of these 42 patients, 22 were in the 500 mg treatment group and 20 were in the 250 mg treatment group.
During the 16-week treatment phase, patients underwent clinical breast examination every 4 weeks. Tumor volume was measured by 3D ultrasound at baseline, week 4, and after 16 weeks of treatment before definitive surgery. Tumor response was defined as complete response (CR, disappearance of all lesions), partial response (PR, at least 65% reduction in tumor volume by 3D ultrasound), disease progression (PD, at least 73% increase in tumor volume), or stable disease (SD, neither partial response nor disease progression). The reduction for partial response was in relation to baseline but for progressive disease was in relation to the smallest tumor volume at any preceding assessment. Objective responders were those patients with a complete response or partial response.

NCI60 cell lines = conditions: mean over all NCI60 cell lines (FIG. 8); cited from earlier work
Ki67 = conditions: after 4 weeks of treatment, patients, cited from earlier work
early breast cancer = experiment: Trial 223: neoadjuvant anastrozole, response according to RECIST; format: in vivo, human; conditions: patients with outcome information
Description: Trial 223 (Smith et al., J. Clin. Oncol., 25:3816-3822, 2007) was a placebo-controlled trial of neoadjuvant anastrozole alone or with gefitinib in early breast cancer. We used pre-treatment samples from patients from arm B and C: anastrozole 1 mg/d for the duration of the 16 week period plus placebo 1 tablet/d orally for 2 weeks. Patients in arm B were followed by gefitinib 250 mg/d orally for 14 weeks whereas patients in arm C continued with placebo for 14 weeks. We received pre-treatment biopsy material from 21 patients in arms B and C with Ki67 measurements after 2 weeks. We received pre-treatment biopsy material from 16 patients in arm C with outcome information according to guidelines set forth in Response Evaluation Criteria in Solid Tumors (RECIST).
The prediction score of the invention (e.g., prediction score for fulvestrant) was tested for the ability to predict response to aromatase inhibition in a small cohort of 21 patients treated with neoadjuvant anastrozole in a similar protocol to that used to test fulvestrant. […] In addition there was no correlation between prediction score and change in Ki67 produced after 2 weeks of anastrozole treatment (N=21, P=0.9).

[2] = 250 mg fulvestrant, patients with array data
[3] = 500 mg fulvestrant for 16 weeks, patients with array data

SMILES: C[C@]12CC[C@@H]3c4ccc(O)cc4C[C@@H](CCCCCCCCC[S+]([O-])CCCC(F)(F)C(F)(F)F)[C@H]3[C@@H]1CC[C@@H]2O (stereo partly drawn) [Fulvestrant, fulvestrant]
- overall response rate (CR+PR) ([1]; 250 mg fulvestrant, 19 patients with array data): 26%
- number of partial responders [1, 2]: 5
- number of patients with stable disease [1, 2]: 13
- number of progressive disease patients [1, 2]: 1
- number of non-responders (SD+PD) [1, 3]: 9
- number of responders (PR) [1, 3]: 11
- overall response rate (CR+PR) ([1]; 500 mg fulvestrant): 50%
- GI50 (NCI60 cell lines): 63 µM
- average reduction in Ki67 (Ki67; 250 mg dose): 47%
- average reduction in Ki67 (Ki67; 500 mg dose): 79%

SMILES: CC(C)(C#N)c1cc(Cn2cncn2)cc(C(C)(C)C#N)c1 [anastrozole]
- number of nonresponders (early breast cancer): Seven
- number of responders (early breast cancer): Nine

SMILES: O=C(c1ccc(OCCN2CCCCC2)cc1)c1c(-c2ccc(O)cc2)sc2cc(O)ccc12 [raloxifene]
- GI50 (NCI60 cell lines): 8.4 µM

SMILES: CC/C(=C(\c1ccccc1)c1ccc(OCCN(C)C)cc1)c1ccccc1 [tamoxifen]
- GI50 (NCI60 cell lines): 4.3 µM

SMILES: CN(C)CCOc1ccc(/C(=C(/CCCl)c2ccccc2)c2ccccc2)cc1 [toremifene]
- GI50 (NCI60 cell lines): 13 µM
